Source: patent US9034904B2, “Forms of dexlansoprazole and processes for the preparation thereof” (APOTEX PHARMACHEM INC., priority 2009, dated 2015)

Test: Chemical stability on storage (chemical purity by HPLC)
Format: physicochemical
Conditions: for reduction in chemical purity by HPLC (area %): following 1 week of storage at 40° C. and 75% relative humidity (40° C./75% RH)

chemical stability compared to other known forms of dexlansoprazole such as the amorphous form (qualitative statement, storage conditions not given) | reduction in chemical purity by HPLC (area %) | Compound
increased chemical stability | – | Cc1c(OCC(F)(F)F)ccnc1C[S@@+]([O-])c1nc2ccccc2[nH]1
– | essentially unchanged | CC(O)CO.Cc1c(OCC(F)(F)F)ccnc1C[S@@+]([O-])c1nc2ccccc2[nH]1.O
– | 8.5 area % | Cc1c(OCC(F)(F)F)ccnc1C[S@@+]([O-])c1nc2ccccc2[nH]1 [amorphous form, (R)-2-[[[3-methyl-4-(2,2,2-trifluoroethoxy)-2-pyridinyl]methyl]sulfinyl]-1H-benzimidazole, reference compound]
